The values that follow come from patent publication US8552013B2, “Heterocyclic compounds based on N6-substituted adenine, methods of their preparation, their use for preparation of drugs, cosmetic preparations and growth regulators, pharmaceutical preparations, cosmetic preparations and growth regulators containing these compounds” (USTAV Experimentalni Botaniky Akademie Ved Ceske Republiky, priority 2001, dated 2013).

The subject of data set [1] is human skin fibroblasts. Kind of data set: Cell attachment of human skin fibroblasts. It is filed as cell-based. Conditions: for attachment / Percent of cells attached, effect in words: ortho 40 to 400 μM, meta 40 to 200 μM; for Percent of cells attached, effect in words: para 40 μM to 1 mM; for Overall cell attachment improved (summary): para at 40, 80, 100, 160, 250 and 500 μM. How it is done: All experiments were performed on early and mid passage cultures (about 20 to 40% lifespan completed) of normal human adult skin fibroblast line; designated ASF-2 & Senetek cell line (about 10-90% lifespan completed); designated as SF20. In order to check the effects of test compounds on senescent cells, late passage cells with more than 95% lifespan completed were used. ASF-2 and SF20 cell lines were established from a mammary skin biopsy obtained from a young, non-smoking and healthy […] at the time of breast reduction operation. Normal culture conditions of medium (DMEM) containing antibiotics, 10% foetal calf serum, and incubation at 37° C. with 95% humidity were used. The effects of the test chemicals were determined in the following conditions: […]

Data set [2] has as its system human skin fibroblasts. As to the kind of experiment: beta-galactosidase staining of treated skin fibroblasts. It is filed as cell-based. The following applies: short-term growth treatment.

Structures are written as SMILES.

Regarding `Oc1cccc(CNc2ncnc3nc[nH]c23)c1` [meta-topolin, 6-(3-hydroxybenzylamino)purine], in the data set on human skin fibroblasts [1] (400 μM, 6 hours), the “reduction in cell attachment” value was determined as 20%. For the same compound, in the data set with human skin fibroblasts [1] (6 hours), the attachment entry was “about 80%” and the “Percent of cells attached, effect in words” value is “not affected to any significant extent”. The “Overall cell attachment improved (summary)” value with human skin fibroblasts [1] is reported as “No improvements”.

For `Oc1ccccc1CNc1ncnc2nc[nH]c12` [ortho-topolin, 6-(2-hydroxybenzylamino)purine], the “number of prematurely senescent cells, beta-galactosidase staining” value in the data set on human skin fibroblasts [2] is “did not show any increase”. In the data set on human skin fibroblasts [1] (6 hours), the attachment lay within 80 to 90% and the “Percent of cells attached, effect in words” value was “not affected to any significant extent”. In addition, in the data set with human skin fibroblasts [1], the “Overall cell attachment improved (summary)” value is on record as “No improvements”.
